For one experiment, the target named is T1, Dihydrofolate reductase (Homo sapiens, UniProt P00374).
T1 sequence (P00374 whole entry): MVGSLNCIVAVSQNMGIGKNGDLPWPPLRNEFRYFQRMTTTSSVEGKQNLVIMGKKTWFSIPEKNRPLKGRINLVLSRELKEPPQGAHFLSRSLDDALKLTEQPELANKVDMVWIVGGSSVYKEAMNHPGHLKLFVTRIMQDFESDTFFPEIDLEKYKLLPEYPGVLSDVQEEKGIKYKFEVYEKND

Experiment [1] can be described thus: Ability to inhibit WI-L2 […] leukemia tumor cell growth in culture after 48 hr of its exposure. It is filed as functional, cell-based. The note with it: Homo sapiens, WIL2, 48 h.
For experiment [2], the system named is L1210. The experiment can be described thus: Ability to inhibit L1210 murine leukemia tumor cell growth in culture after 48 hr of its exposure. It counts as functional, cell-based. The note with it: Mus musculus, L1210, 48 h.
Experiment [3] concerns L1210. The experiment can be described thus: Ability to inhibit MTX-resistant L1210/R81 tumor cell growth was determined. To be noted: Mus musculus.

Description for Dihydrofolate reductase: Ability to inhibit purified Dihydrofolate reductase from human leukemic lymphoblasts was determined spectrophotometrically at 340 nM.

On to `C=C(CC(NC(=O)c1ccc(N(C)Cc2cnc3nc(N)nc(N)c3n2)cc1)C(=O)O)C(=O)O` (stereo unspecified), for which the IC50 (in general, the concentration at which inhibition is half-maximal) against Dihydrofolate reductase came out at 44 nM; in experiment [1] it was 48 nM; in the experiment on L1210 [2], 870 nM.
As to `CN(Cc1cnc2nc(N)nc(N)c2n1)c1ccc(C(=O)NC(CC(C#N)C(=O)O)C(=O)O)cc1` (stereo unspecified), the figures for the IC50 on Dihydrofolate reductase and with L1210 [2] were 57 nM and 18 nM, respectively.
Regarding `CN(Cc1cnc2nc(N)nc(N)c2n1)c1ccc(C(=O)N[C@@H](CCC(=O)O)C(=O)O)cc1` [METHOTREXATE], the IC50 in the experiment with L1210 [3] was 200000 nM; in experiment [1], 13 nM.
`C=C(CC(NC(=O)c1ccc(NCc2cnc3nc(N)nc(N)c3n2)cc1)C(=O)O)C(=O)O` (stereo unspecified): the IC50 is 88 nM against Dihydrofolate reductase, 20 nM in experiment [1] and 29 nM in the experiment with L1210 [2].
In experiment [1], `Nc1nc(N)c2nc(CNc3ccc(C(=O)N[C@@H](CCC(=O)O)C(=O)O)cc3)cnc2n1` [AMINOPTERIN] showed an IC50 of 7.1 nM.

(Values after ChEMBL document CHEMBL1125723 (J Med Chem, 1991).)
